Assay results: ChEMBL document CHEMBL1201862, “PubChem BioAssay data set” (2004)
Calls of active or inactive are those of the source.

Tests used:
[1] = ADAM10 inhibitors, peptide cleavage, dose response, biochemical, QFRET (AID 743254);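 also: ADAM10 enzyme with the DM2 quenched FRET peptide as substrate; EDANS fluorescence gain as the protease cuts the substrate; inhibitor potency against ADAM10 proteolytic activity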
[2] = biological target: T1, Disintegrin and metalloproteinase domain-containing protein 17 (Homo sapiens, UniProt P78536); experiment: ADAM17 protease inhibitors, dose response, counter-screen for ADAM10 exosite inhibitor project, biochemical, quenched FRET substrate (AID 743253)
[3] = biological target: T2, Sentrin-specific protease 1 (Homo sapiens, UniProt Q9P0U3); experiment: potency of human SENP1 inhibitors, dose response, biochemical, kinetic FRET (AID 651697); type: functional; conditions: read-out: IC50_Mean
T2 sequence (Q9P0U3 whole entry): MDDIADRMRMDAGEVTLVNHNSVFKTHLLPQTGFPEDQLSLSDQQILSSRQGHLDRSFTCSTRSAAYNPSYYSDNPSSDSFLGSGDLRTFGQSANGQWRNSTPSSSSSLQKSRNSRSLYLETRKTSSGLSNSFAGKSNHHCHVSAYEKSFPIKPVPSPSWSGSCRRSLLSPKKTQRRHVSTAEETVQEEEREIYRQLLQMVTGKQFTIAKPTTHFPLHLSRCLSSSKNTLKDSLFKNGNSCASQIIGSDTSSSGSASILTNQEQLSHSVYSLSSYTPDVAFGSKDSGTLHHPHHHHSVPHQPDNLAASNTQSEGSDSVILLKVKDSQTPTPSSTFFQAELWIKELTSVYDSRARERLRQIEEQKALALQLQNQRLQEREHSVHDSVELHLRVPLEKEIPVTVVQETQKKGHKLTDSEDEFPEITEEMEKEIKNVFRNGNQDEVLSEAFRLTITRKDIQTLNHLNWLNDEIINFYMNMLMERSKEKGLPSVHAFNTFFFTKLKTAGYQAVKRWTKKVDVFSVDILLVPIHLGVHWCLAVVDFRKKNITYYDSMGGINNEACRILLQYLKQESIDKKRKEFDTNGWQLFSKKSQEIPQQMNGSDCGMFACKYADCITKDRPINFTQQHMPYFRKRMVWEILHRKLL

[4] = biological target: T2, Sentrin-specific protease 1; experiment: Dose response confirmation of small molecule inhibitors of the catalytic domain of the SUMO protease, SENP1 in a FRET assay.; type: functional; conditions: read-out: IC50_Mean
Albumin = Albumin (Bos taurus, UniProt P02769); experiment: Counterscreen for inhibitors of T-cell receptor (TCR)-CD3 interaction: Fluorescence-based biochemical high throughput dose response assay to identify inhibitors of T-cell receptor (TCR)-CD3 interaction using a TAMRA-labeled BSA probe.; type: functional
[5] = biological target: T3, Methionyl-tRNA synthetase, putative (Trypanosoma brucei brucei, UniProt Q38C91); type: functional, Trypanosoma brucei brucei strain 927/4 GUTat10.1;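 also: Read-out by fluorescence polarization, run as a confirmatory high-throughput counterscreen; potency of MetRS inhibitors measured by reduced AMP formation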
T3 sequence (Q38C91 whole entry): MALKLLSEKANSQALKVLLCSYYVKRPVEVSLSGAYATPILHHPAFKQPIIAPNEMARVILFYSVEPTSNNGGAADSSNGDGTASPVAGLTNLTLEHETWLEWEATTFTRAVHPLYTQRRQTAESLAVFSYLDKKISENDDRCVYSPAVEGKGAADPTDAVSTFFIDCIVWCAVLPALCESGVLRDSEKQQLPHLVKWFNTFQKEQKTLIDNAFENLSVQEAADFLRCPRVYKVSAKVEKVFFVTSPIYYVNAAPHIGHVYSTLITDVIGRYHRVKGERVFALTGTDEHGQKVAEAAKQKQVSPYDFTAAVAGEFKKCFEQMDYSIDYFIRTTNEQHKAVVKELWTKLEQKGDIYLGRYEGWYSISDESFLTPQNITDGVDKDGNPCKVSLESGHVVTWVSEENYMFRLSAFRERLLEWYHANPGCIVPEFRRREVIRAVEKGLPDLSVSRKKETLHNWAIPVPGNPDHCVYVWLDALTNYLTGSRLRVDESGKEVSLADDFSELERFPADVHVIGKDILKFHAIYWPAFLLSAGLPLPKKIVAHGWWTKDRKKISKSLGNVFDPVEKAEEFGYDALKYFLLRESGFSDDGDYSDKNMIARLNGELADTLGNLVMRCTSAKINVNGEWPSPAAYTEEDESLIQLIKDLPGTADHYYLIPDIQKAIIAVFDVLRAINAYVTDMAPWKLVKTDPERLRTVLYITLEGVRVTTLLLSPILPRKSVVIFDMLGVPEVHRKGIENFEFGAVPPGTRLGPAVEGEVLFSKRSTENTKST

[6] = biological target: Fructose-bisphosphate aldolase (Mycobacterium tuberculosis, UniProt P9WQA3); experiment: Fluorescence-based biochemical high throughput dose response assay for inhibitors of the fructose-bisphosphate aldolase (FBA) of M. tuberculosis.; type: functional
[7] = biological target: T4, Corticotropin-releasing factor receptor 2/Corticotropin-releasing factor-binding protein (Homo sapiens, UniProt P24387+Q13324); experiment: activators of CRF receptor 2 with binding protein – uHTS hits, confirmation (AID 602473); type: functional; conditions: read-out: EC50_Mean
T4 sequence (Q13324 whole entry): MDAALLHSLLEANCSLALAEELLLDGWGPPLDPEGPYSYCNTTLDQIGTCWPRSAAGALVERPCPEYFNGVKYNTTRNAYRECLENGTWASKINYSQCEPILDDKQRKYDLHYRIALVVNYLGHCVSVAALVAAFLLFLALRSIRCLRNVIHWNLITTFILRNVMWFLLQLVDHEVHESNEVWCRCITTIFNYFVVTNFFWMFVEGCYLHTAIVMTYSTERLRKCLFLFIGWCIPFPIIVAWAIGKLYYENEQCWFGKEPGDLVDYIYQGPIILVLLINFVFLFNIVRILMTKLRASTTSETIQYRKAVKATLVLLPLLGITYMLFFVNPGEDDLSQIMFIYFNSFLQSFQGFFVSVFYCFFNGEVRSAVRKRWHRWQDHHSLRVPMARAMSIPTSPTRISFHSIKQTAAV
T4 sequence (P24387 whole entry): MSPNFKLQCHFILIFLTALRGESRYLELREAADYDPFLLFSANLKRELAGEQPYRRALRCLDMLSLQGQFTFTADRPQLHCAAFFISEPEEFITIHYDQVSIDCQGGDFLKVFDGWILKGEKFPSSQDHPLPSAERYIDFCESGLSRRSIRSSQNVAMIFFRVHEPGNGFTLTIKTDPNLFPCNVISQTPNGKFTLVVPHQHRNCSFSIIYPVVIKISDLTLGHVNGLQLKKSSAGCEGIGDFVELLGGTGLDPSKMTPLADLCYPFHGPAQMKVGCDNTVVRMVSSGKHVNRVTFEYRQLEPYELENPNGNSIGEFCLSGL

HeLa = experiment: HeLa cell cytotoxicity, dose response, cytotoxicity control, ATP luminescence, cherry-pick samples (AID 687004); type: functional, cell-based; conditions: Homo sapiens
[8] = biological target: T4, Corticotropin-releasing factor receptor 2/Corticotropin-releasing factor-binding protein; experiment: Dose Response confirmation of uHTS hits for small molecule antagonists of the CRF-binding protein and CRF-R2 receptor complex.; type: functional; conditions: read-out: IC50_Mean
[9] = Counterscreen for inhibitors of Trypanosoma brucei methionyl tRNA synthetase (MetRS): Luminescence-based cell-based high throughput dose response assay to identify compounds that are cytotoxic to Jurkat human T lymphocyte cells.; type: functional
[10] = inhibitors of HIV Env-driven cell fusion, dose response, cherry-pick (AID 652057); type: functional, cell-based
[11] = off-target signal loss in HeLa-CEM21 co-culture – HeLa F-luc CTL cells, cherry-picked, counter-screen for HIV-1 Env fusion inhibitor project, dose response (AID 652040); type: functional, cell-based;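 also: potency for signal decrease marking cytotoxic or nonspecific inhibition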
[12] = CEM21 lymphoblast cell cytotoxicity, dose response, cytotoxicity control for viral fusion inhibitor project, CellTiter-Glo luminescence, cherry-picked (AID 652042); type: functional, cell-based;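 also: potency for signal decrease meaning cytotoxicity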
[13] = HeLa cell cytotoxicity, dose response, cytotoxicity control for MgcRacGAP inhibitor project (AID 624300); type: functional
[14] = inhibitors of clade B AD8 Env fusion, dose response, cell-based, cherry-pick (AID 652062); type: functional;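 also: luciferase signal from cell-cell fusion driven by HIV-1 clade B AD8 Env; potency is for inhibitors of fusion seen as a drop in luminescence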
[15] = ZM109 Env clade C HIV-1 fusion inhibitors, dose response, HeLa effector, CEM target cells, luciferase, cherry-pick (AID 652058); type: functional, cell-based
[16] = biological target: DNA damage-inducible transcript 3 protein (Mus musculus, UniProt P35639); type: functional, Cricetulus griseus
[17] = biological target: T5, Latent membrane protein 1 (Human herpesvirus 4 (strain B95-8), UniProt P03230); experiment: TES1-eGFP NF-kB reporter inhibition versus Tet-On dsRED, dose response, selectivity assay for LMP1 NF-kB inhibitor project, imaging, HEK293T, dual-color eGFP/dsRED, cherry-picks (AID 588398); type: functional, cell-based
T5 sequence (P03230 whole entry): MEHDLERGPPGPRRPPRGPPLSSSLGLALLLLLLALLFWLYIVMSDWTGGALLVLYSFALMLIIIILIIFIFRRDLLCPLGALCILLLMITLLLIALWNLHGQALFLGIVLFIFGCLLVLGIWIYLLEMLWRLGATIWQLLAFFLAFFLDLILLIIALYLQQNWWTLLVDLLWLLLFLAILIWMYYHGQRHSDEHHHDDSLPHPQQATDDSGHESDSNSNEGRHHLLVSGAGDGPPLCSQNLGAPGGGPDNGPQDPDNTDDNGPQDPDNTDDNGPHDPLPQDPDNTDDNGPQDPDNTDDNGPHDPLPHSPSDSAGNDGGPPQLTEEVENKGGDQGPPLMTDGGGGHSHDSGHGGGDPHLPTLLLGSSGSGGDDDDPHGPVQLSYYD

[18] = ADAM10 protease inhibitors, dose response, selectivity assay for ADAM17 exosite inhibitor project, biochemical, FRET peptide substrate, recombinant human ADAM10 (AID 743259);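 also: ADAM10 enzyme cleaving a FRET peptide substrate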
[19] = biological target: T1, Disintegrin and metalloproteinase domain-containing protein 17; experiment: exosite inhibitors of ADAM17, dose response, biochemical (AID 743260)
[20] = biological target: T6, Probable nicotinate-nucleotide adenylyltransferase (Staphylococcus aureus (strain N315), UniProt P65502); type: functional, Staphylococcus aureus subsp. aureus N315; conditions: read-out: IC50_Mean;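 as to IC50 Mean: confirmatory dose-response retesting of NadD inhibitor hits first found in an ultra-high-throughput screen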
[21] = biological target: T6, Probable nicotinate-nucleotide adenylyltransferase; type: functional, Staphylococcus aureus subsp. aureus N315

T1 sequence (P78536 whole entry, the tested form may be a part): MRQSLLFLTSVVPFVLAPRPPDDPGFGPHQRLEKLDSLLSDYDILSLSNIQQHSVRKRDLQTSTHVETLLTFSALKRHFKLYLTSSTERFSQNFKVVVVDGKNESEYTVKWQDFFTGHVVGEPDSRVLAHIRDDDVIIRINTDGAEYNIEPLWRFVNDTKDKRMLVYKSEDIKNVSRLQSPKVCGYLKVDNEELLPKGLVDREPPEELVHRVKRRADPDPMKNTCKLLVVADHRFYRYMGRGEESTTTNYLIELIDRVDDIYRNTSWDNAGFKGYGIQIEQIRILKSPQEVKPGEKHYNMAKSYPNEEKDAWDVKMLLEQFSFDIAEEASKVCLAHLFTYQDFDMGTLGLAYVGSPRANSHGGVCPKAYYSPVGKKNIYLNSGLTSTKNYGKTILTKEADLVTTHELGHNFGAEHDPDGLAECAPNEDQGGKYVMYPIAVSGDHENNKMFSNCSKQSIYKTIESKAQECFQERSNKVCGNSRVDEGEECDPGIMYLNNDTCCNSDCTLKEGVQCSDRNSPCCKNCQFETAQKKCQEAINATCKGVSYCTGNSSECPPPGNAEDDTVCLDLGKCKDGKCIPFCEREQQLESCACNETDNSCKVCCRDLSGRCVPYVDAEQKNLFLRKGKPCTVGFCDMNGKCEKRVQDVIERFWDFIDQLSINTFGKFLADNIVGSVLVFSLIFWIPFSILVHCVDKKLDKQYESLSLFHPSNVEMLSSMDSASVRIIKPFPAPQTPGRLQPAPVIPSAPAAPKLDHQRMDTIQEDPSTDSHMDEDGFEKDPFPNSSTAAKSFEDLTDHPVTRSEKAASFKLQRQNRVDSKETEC
T6 sequence (P65502 whole entry): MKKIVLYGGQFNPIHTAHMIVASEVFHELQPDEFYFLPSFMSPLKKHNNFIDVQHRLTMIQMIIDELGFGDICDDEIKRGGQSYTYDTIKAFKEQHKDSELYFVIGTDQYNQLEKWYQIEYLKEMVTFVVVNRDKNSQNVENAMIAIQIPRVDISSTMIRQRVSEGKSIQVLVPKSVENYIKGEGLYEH
Chain of Fructose-bisphosphate aldolase (P9WQA3 whole entry): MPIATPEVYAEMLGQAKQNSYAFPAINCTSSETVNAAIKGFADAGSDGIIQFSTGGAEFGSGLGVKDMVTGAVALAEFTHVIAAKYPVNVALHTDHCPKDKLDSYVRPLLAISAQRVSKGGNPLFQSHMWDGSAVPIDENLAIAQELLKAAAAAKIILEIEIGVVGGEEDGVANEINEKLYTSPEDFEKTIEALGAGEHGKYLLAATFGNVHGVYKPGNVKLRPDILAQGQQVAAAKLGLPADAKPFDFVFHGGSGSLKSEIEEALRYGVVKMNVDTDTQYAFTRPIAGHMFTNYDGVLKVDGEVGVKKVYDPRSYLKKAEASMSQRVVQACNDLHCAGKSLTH
Chain of Albumin (P02769 whole entry): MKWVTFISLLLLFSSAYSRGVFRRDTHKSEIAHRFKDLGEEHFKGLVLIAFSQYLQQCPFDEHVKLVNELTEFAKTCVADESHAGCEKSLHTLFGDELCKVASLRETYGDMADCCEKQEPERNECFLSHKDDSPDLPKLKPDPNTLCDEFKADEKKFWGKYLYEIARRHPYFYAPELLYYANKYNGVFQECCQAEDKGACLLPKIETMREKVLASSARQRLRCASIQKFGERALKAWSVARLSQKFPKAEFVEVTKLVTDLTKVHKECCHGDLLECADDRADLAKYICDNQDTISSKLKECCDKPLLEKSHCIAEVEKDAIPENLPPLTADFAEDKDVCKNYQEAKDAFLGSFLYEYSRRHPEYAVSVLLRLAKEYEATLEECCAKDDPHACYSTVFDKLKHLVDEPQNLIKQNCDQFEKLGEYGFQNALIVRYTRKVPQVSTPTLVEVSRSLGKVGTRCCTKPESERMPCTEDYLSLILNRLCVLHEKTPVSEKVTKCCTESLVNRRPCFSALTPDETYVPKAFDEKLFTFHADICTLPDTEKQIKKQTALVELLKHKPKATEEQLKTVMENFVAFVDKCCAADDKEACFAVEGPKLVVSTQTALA
Chain of DNA damage-inducible transcript 3 protein (P35639 whole entry): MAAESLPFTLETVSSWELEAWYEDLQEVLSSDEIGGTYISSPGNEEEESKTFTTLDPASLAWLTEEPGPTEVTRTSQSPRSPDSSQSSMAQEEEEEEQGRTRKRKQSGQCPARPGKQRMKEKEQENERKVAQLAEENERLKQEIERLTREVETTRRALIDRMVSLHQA

COc1cc(C(O)c2nc(-c3ccc4ccccc4c3)cs2)ccc1F (stereo not drawn)
IC50 [1]: 10.4 µM (inactive) | IC50 [2]: > 69.5 µM (inactive)

CC1=C(C(N)=O)S(=O)(=O)c2ccccc21
IC50 [3]: 19.6 µM (active) | IC50 [4]: 23 µM (inactive)

O=C(NNC(=S)NC(=O)c1cccc([N+](=O)[O-])c1)c1ccc(O)cc1
IC50 (Albumin): > 94 µM (inactive)

O=C(CSc1nc2ccc(Cl)cc2[nH]1)c1c[nH]c2ccccc12
IC50 [5]: 39.5 µM (inactive)

CCCC(C(=O)Nc1ccc2c(C)cc(=O)oc2c1)c1ccccc1 (stereo not drawn)
IC50 [6]: 1.23 µM (active)

COc1ccc(/C=N/N2C(=O)CSC2=S)cc1Br
IC50 [3]: 19.3 µM (active) | IC50 [4]: 9.69 µM (active)

COC(=O)C1=C(C)N(Cc2ccccc2)C(=S)N[C@H]1c1cccc(F)c1
EC50 [7]: > 53 µM (inactive) | AC50 (HeLa): > 52 µM (inactive) | IC50 [8]: > 47.1 µM (inactive)

O=C(CSc1nc2cc(Cl)ccc2[nH]1)c1c[nH]c2ccccc12
IC50 [9]: 83.3 µM (inactive)

CCc1ccc(CNCCc2c[nH]c3ccccc23)cc1
AC50 [10]: 4.4 µM (active) | AC50 [11]: 6.36 µM (active) | AC50 [12]: 31.7 µM (active) | CC50 [13]: 100 µM (active) | AC50 [14]: 12.2 µM (active) | AC50 [15]: 4.01 µM (active)

COc1ccccc1NC(=O)c1c(Nc2ccccc2C)sc(C(=O)Nc2cccc(Cl)c2)c1N
Absolute IC50 (CHOP) [16]: 10 µM | AC50 [17]: 21.3 µM (active) | IC50 [18]: > 69.5 µM (inactive) | IC50 [1]: > 7.73 µM (active) | IC50 [19]: > 69.5 µM (inactive) | IC50 [2]: > 69.5 µM (inactive) | IC50 [20]: 80 µM (inactive) | IC50 [21]: 26 µM (active)

N#CC1=C(C2CC2)CC(c2ccccc2)C(C#N)=C1N (stereo not drawn)
IC50 [6]: > 10 µM (inactive)
